Test: Pre-test: latanoprost dissolved in the 0.15% hylan A vehicle, HPLC
Type: physicochemical
Details: 0.15% w/v hylan A vehicle, stirred 18 hours at 40° C., 25 or 50 μg/ml added
Protocol: Sterile bulk solution for the production of COMFORT SHIELD® MDS eye drops (i.com medical GmbH, Munich, Germany) was used as vehicle for the preparation of prototype latanoprost bulk solution (PLBS). The vehicle contained 0.15% w/v hylan A (HA with 2.9 m^3/kg intrinsic viscosity) dissolved in phosphate buffered saline solution (8.035 g/l NaCl; 1.2 mmol/1 Na2HPO4/NaH2PO4; pH 7.4). Latanoprost was obtained from Yonsung Fine Chemicals Co. Ltd., Gyeonggi-do, Republic of Korea. PLBS was prepared by medi-pharm Laboratorium GmbH, Falkensee, Germany by dissolving 20±1 μg/ml latanoprost in the vehicle.
In a pre-test 25 μg/ml and 50 μg/ml latanoprost were added to the vehicle and the solution stirred for 18 hours at 40° C. The latanoprost content was determined by HPLC using a Hypersil BDS C18 5 μg, 150.0×4.0 mm column (VDS optilab) and a UV detector (200 nm).

- latanoprost found to be dissolved in the vehicle: 20.8 µg/mL
SMILES: CC(C)OC(=O)CCC/C=C\C[C@@H]1[C@@H](CC[C@@H](O)CCc2ccccc2)[C@H](O)C[C@@H]1O [latanoprost, Latanoprost]
